Data: paper PMC9866940 (Viruses, 2022)
Structures can show the parent of a compound that is named as a salt. Where two headings read alike, the source gives them in different places.

Tests used:
JUNV MG = assay: microbe, parasite or virus in culture; assay type: cell-based, Junin virus (JUNV)
LASV MG = assay: microbe, parasite or virus in culture; assay type: cell-based, Lassa virus (LASV); conditions: for inhibition of LASV MG activity (rescreening): 5 µM; for inhibition at 5 µM: Huh-7, read-out: inhibition of LASV MG activity (rescreening)
JUNV (Candid #1 strain) = assay: microbe, parasite or virus in culture; assay type: cell-based, Junin virus (JUNV)
Huh-7 cells = conditions: 5 µM
A549 cells [1] = test system: A549 cells
in vitro [2] = conditions: human
LCMV (rLCMV.Arm) = assay: microbe, parasite or virus in culture; assay type: cell-based, lymphocytic choriomeningitis virus (LCMV)
LCMV MG = assay type: cell-based, lymphocytic choriomeningitis virus (LCMV); conditions: 5 µM
A549 cells [3] = test system: A549 cells; remark: listed apart in the source
in vitro [4] = conditions: human; remark: listed apart in the source
in vitro [5] = conditions: human; remark: listed apart in the source
in vitro [6] = conditions: human; remark: listed apart in the source
[7] = Mammarenavirus juninense, Huh-7
[8] = Mammarenavirus lassaense, Huh-7
[9] = Mammarenavirus juninense, A549, 48 h
[10] = Mammarenavirus choriomeningitidis, A549, 24 h

| SMILES | IC50 (JUNV MG; [7]) [nM] | IC50 (LASV MG; [8]) [nM] | IC50 (JUNV (Candid #1 strain); [9]) [nM] | CC50 (in vitro [2]) [nM] | IC50 (LCMV (rLCMV.Arm); [10]) [nM] | IC50 (JUNV MG; read-out: IC50) [nM] | IC50 (LASV MG; read-out: IC50) [nM] | CC50 (A549 cells [3]) [nM] | CC50 (A549 cells [1]) [nM] | IC50 (LCMV (rLCMV.Arm); read-out: IC50) [nM] | IC50 (JUNV (Candid #1 strain); read-out: IC50) [nM] | other results |
| --- | --- | --- | --- | --- | --- | --- | --- | --- | --- | --- | --- | --- |
| COc1c(C)c2c(c(O)c1C/C=C(\C)CCC(=O)O)C(=O)OC2 [MPA, mycophenolic acid] | 420 | 370 | 970 |  |  |  |  |  |  |  |  |  |
| CCN(CC)CCCC(C)Nc1c2ccc(Cl)cc2nc2ccc(OC)cc12 (stereo not shown) [QDD, quinacrine dihydrochloride dihydrate] |  |  |  |  |  |  |  |  |  |  |  | IC50 (JUNV MG): 1460 nM; IC50 (LASV MG): 1280 nM; inhibition of LASV MG activity (rescreening) (LASV MG): at least 90%; cell viability (rescreening) (Huh-7 cells; human): > 70%; CC50 (A549 cells [1]; human): 28000 nM; IC50 (JUNV (Candid #1 strain)): 4660 nM |
| CN(C)CCN1C(=O)c2cccc3cc(N)cc(c23)C1=O [amonafide] | 2900 | 2890 | 5750 | ≥ 40000 | 10000 |  |  |  |  |  |  |  |
| Cc1c2ccncc2c(C)c2c1[nH]c1ccccc12.Cl [ellipticine hydrochloride] |  |  |  |  |  | 760 | 760 | ≥ 20000 | 32500 | 1500 | 1730 | inhibition of LCMV MG activity (LCMV MG): 95% |
| CC(=O)[C@]1(O)Cc2c(O)c3c(c(O)c2[C@@H](O[C@H]2C[C@H](N)[C@H](O)[C@H](C)O2)C1)C(=O)c1ccccc1C3=O [idarubicin hydrochloride] | 120 | 60 | 2560 | 790 | 590 |  |  |  |  |  |  |  |
| NCCNc1ccc(NCCN)c2c1C(=O)c1ccncc1C2=O.O=C(O)/C=C\C(=O)O.O=C(O)/C=C\C(=O)O [pixantrone maleate] |  |  |  |  |  | 1810 | 1010 | ≥ 40000 | 30300 | 4750 | 3660 | inhibition of LASV MG activity (rescreening) (LASV MG): at least 90%; cell viability (rescreening) (Huh-7 cells): > 70% |
| Nc1ccc2cc3ccc(N)cc3nc2c1 [proflavine] | 1360 | 1040 | 2450 |  |  |  |  |  |  |  |  | inhibition at 5 µM (LASV MG; Mammarenavirus lassaense): ≥ 90%; viability at 5 µM (in vitro [4]): > 70% |
| CCN(CC)CCCC(C)Nc1c2ccc(Cl)cc2nc2ccc(OC)cc12 (stereo not shown) [quinacrine dihydrochloride] | 1510 | 1670 | 7330 |  |  |  |  |  |  |  |  | inhibition at 5 µM (LASV MG; Mammarenavirus lassaense): ≥ 90%; viability at 5 µM (in vitro [4]): > 70% |
| NC(=O)c1ncn([C@@H]2O[C@H](CO)[C@@H](O)[C@H]2O)n1 [ribavirin, Ribavirin] | 38200 | 15400 | 45400 | ≥ 100000 | 20200 |  |  |  |  |  |  | CC50 (in vitro [5]): ≥ 200000 nM; CC50 (in vitro [6]): ≥ 200000 nM; CC50 (in vitro [4]; CC50): ≥ 200000 nM |
| CN[C@H]1CN(c2ccc3c(=O)c(C(=O)O)cn(-c4nccs4)c3n2)C[C@@H]1OC [voreloxin (SNS 595) hydrochloride] |  |  |  |  |  | 1150 | 1820 | ≥ 40000 | 13300 | 8500 | 5230 |  |
